From US10501479B2, “Benzenesulfonyl-asymmetric ureas and medical uses thereof” (HELSINN HEALTHCARE SA, priority 2016, dated 2019)
Where two headings read alike, the source gives them in different places.

Columns and labels:
[1] = molecular target: T1, recombinant human ghrelin receptor (HEK293/GRLN) (Homo sapiens, UniProt Q92847); test: Ghrelin inverse agonist potency (EC50) with IP-1 (IP-One HTRF) assay; type: cell-based; details: IP-1 assay
T1 construct: expressed in transfected cells
Outline: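 IP-1 accumulation was measured by HTRF (IP1-d2/Tb-cryptate, 620/665 nm read after 1 hour at room temperature) following 1 hour of compound treatment at 37° C. Cells were HEK293 stably expressing human ghrelin receptor, plated a day earlier on Matrigel. Inverse agonist potency was reported as EC50.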

[2] = molecular target: T2, GHSR-1a (HEK293/GHSR1a cell line) (Homo sapiens, UniProt Q92847); test: Ghrelin antagonist potency (IC50) with calcium FLIPR assay, ghrelin 10 nM; type: cell-based
T2 construct: expressed in transfected cells; host or cells: HEK293/GHSR1a cell line
T2 sequence (Q92847 whole entry): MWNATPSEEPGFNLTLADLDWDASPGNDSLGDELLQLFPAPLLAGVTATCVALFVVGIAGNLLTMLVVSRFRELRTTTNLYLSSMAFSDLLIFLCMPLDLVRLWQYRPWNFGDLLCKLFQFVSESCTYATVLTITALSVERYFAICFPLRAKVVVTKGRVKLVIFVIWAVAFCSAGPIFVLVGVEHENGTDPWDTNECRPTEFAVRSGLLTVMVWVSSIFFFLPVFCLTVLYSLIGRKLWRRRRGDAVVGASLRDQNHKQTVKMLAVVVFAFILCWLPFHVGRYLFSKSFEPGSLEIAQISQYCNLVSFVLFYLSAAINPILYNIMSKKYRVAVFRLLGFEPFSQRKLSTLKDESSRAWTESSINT
Outline: (§1)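 Calcium flux was followed 2 min by FLIPR in dye-loaded HEK293/GHSR1a cells. For antagonist IC50, compound and ghrelin (10 nM) were co-added at t=20 sec and inhibition of the ghrelin signal fitted; for agonist EC50, compound alone was added at t=20 sec and dose-response fitted.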

[3] = Metabolic stability in human liver microsomes; type: in vitro ADME
Outline: (§2)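 Parent compound was measured by LC-MS/MS at time zero and after 10, 30 and 90 min at 37 °C. Incubations used liver microsomes from four species (human, dog, rat, mouse) with an NADPH regenerating system in pH 7.4 potassium phosphate buffer. Each timepoint was stopped with cold quench solution.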

[4] = Metabolic stability in dog liver microsomes; type: in vitro ADME
Experimental: (§3) Metabolic Stability Study
(§4) The metabolic stability of compounds in human, dog, rat and mouse liver microsomes was performed according the experimental conditions reported below:
(§5) • a) Prepare the following 5 stock solutions: • 1. Test compound stock solutions: dilute 10 mM solution of dextromethorphan (Dtr) in DMSO, 10 mM solution of diphenhydramine (DPA) in DMSO, 10 mM solution of omeprazole (Ome) in DMSO, 10 mM solution of verapamil (Ver) in DMSO, and 10 mM of an inverse agonist compound in DMSO to 0.25 mM solution each with acetonitrile/water (70/30). • 2. Buffer: 100 mM potassium phosphate Buffer (PBS) at pH 7.4 • 3. Liver microsomes (20 mg/ml): Thaw in 37° C. water bath quickly • 4. 2000 μL: of NADPH regenerating system (1.3 mM). Place this system on ice before use:
(§6) • 5. […] The test compound concentration in the wells, measured by LC-MS/MS, represents the concentration at time=0. • f) To determine the test compound concentration when t≠0, pre-incubate the NADPH regenerating system and the incubation plate containing the remaining 320 μL of incubation mixture (microsomes protein and test compound) for 5 minutes at 37° C. • g) Start the incubation reaction by adding 80 μL NADPH regenerating system to each well containing the remaining 320 μL incubation mixture. • h) After 10 min., 30 min., and 90 min. of incubation at 37° C., transfer 100 μL of the incubation mixture (microsomes protein, test compound, and NADPH) into the wells of a stop plate pre-filled with 300 μL of the cold quench solution. Shake well. • i) Centrifuge the stop plate at 5000×g for 10 minutes. Collect and dilute the supernatant 3 times with distilled water. Sample and analyze the test compound concentration for all the wells by LC-MS/MS. Animal PK Studies via i.v. (intravenous), p.o. (orally) and s.c. (subcutaneous) administrations

[5] = Metabolic stability in rat liver microsomes; type: in vitro ADME
Experimental: as §3, §4, §5, §6

[6] = Metabolic stability in mouse liver microsomes; type: in vitro ADME
Outline: as §2

[7] = Animal PK study in mouse via i.v., p.o. and s.c. administration; type: in vivo
Outline: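 Plasma drug levels were measured by LC-MS/MS after acetonitrile precipitation, with blood drawn up to 24 h post-dose (from 0.083 h i.v./s.c., 0.25 h oral) in mice or rats. Animals received one dose by gavage in DMSO/methylcellulose, or by tail-vein or subcutaneous injection in DMSO/HP-β-cyclodextrin.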

[8] = molecular target: T2, GHSR-1a (HEK293/GHSR1a cell line); test: Ghrelin agonist potency (EC50) with calcium FLIPR assay; type: cell-based; details: HEK293/GHSR1a, read-out: Activity EC50/EMax: EC50 (ghrelin agonist potency)
Outline: as §1

[9] = Plasma protein binding (PPB), human; type: in vitro ADME; details: read-out: PPB (H) (converted)
[10] = Plasma protein binding (PPB), mouse; type: in vitro ADME
[11] = inverse agonist potency, read-out: EC50 (Activity)
[12] = ghrelin antagonist potency, read-out: IC50 (Activity)
[13] = HEK293/GRLN, read-out: Activity EC50 (ghrelin inverse agonist potency)
[14] = HEK293/GHSR1a, ghrelin 10 nM, read-out: Activity IC50 (ghrelin antagonist potency)

T1 sequence (Q92847 whole entry): as above

COc1ccc([C@H](C)NC(=O)Nc2ccc(S(=O)(=O)Nc3ccc(CC(C)(C)N)cc3)cc2)c(Cl)c1Cl [H0937, (S)-N-(4-(2-amino-2-methylpropyl)phenyl)-4-(3-(1-(2,3-dichloro-4-methoxyphenyl)ethyl)ureido) benzenesulfonamide]
EC50 [1, 11]: 12.7 nM | IC50 [2, 12]: 84 nM | Metabolic Stability Study H = human [3]: H = <10 M = <10 R = <10 D = <10 μL/min/mg | Metabolic Stability Study D = dog [4]: H = <10 M = <10 R = <10 D = <10 μL/min/mg | Metabolic Stability Study R = rat [5]: H = <10 M = <10 R = <10 D = <10 μL/min/mg | Metabolic Stability Study M = mouse [6]: H = <10 M = <10 R = <10 D = <10 μL/min/mg

C[C@H](NC(=O)Nc1ccc(S(=O)(=O)Nc2ccc(CC(C)(C)N)cc2)cc1)c1cccc(Cl)c1Cl.Cl [H0943, (S)-N-(4-(2-amino-2-methylpropyl)phenyl)-4-(3-(1-(2,3-dichlorophenyl)ethyl)ureido) benzenesulfonamide]
EC50 [1, 11]: 2.5 nM | IC50 [2, 12]: 7.8 nM | Metabolic Stability Study H = human [3]: 10.6 µL/min/mg | Metabolic Stability Study D = dog [4]: < 10 µL/min/mg | Metabolic Stability Study R = rat [5]: 11.7 µL/min/mg | Metabolic Stability Study M = mouse [6]: < 10 µL/min/mg

CC(C)(N)Cc1ccc(NS(=O)(=O)c2ccc(NC(=O)NCc3ccccc3)cc2)cc1.Cl [H0993, N-(4-(2-amino-2-methylpropyl)phenyl)-4-(3-benzylureido) benzenesulfonamide]
EC50 [1, 11]: 21 nM | IC50 [2, 12]: 288 nM | Metabolic Stability Study H = human [3]: 18.5 µL/min/mg | Metabolic Stability Study D = dog [4]: < 10 µL/min/mg | Metabolic Stability Study R = rat [5]: 15.1 µL/min/mg | Metabolic Stability Study M = mouse [6]: 14.3 µL/min/mg | PK F [7]: 0.4% | PK CLiv ([7]; i.v.): 2.15 L/h/kg | PK Vdiv ([7]; i.v.): 4.31 L/kg | PK t1/2iv ([7]; i.v.): 1.39 h | PK CLpo ([7]; p.o.): 438.1 L/h/kg | PK Vdpo ([7]; p.o.): 2550 L/kg | PK t1/2po ([7]; p.o.): 4.03 h

CN(C)C(C)(C)Cc1ccc(NS(=O)(=O)c2ccc(NC(=O)NCc3cccc(Cl)c3Cl)cc2)cc1 [H0995, 4-(3-(2,3-dichlorobenzyl)ureido)-N-(4-(2-(dimethylamino)-2-methylpropyl)phenyl) benzenesulfonamide]
EC50 [1, 11]: 2.52 nM | IC50 [2, 12]: 32.1 nM | Metabolic Stability Study H = human [3]: 54.5 µL/min/mg | Metabolic Stability Study D = dog [4]: 52.7 µL/min/mg | Metabolic Stability Study R = rat [5]: 92.4 µL/min/mg | Metabolic Stability Study M = mouse [6]: 194.6 µL/min/mg

CC(C)(N)Cc1ccc(CS(=O)(=O)c2ccc(NC(=O)NCc3cccc(Cl)c3Cl)cc2)cc1 [H0996, 1-(4-((4-(2-amino-2-methylpropyl)benzyl)sulfonyl)phenyl)-3-(2,3-dichlorobenzyl)urea]
EC50 [1, 11]: 64 nM | IC50 [2, 12]: 461 nM | Metabolic Stability Study H = human [3]: 27.5 µL/min/mg | Metabolic Stability Study D = dog [4]: < 10 µL/min/mg | Metabolic Stability Study R = rat [5]: 77.8 µL/min/mg | Metabolic Stability Study M = mouse [6]: 125.4 µL/min/mg

C[C@H](NC(=O)Nc1ccc(S(=O)(=O)Cc2ccc3[nH]ccc3c2)cc1)c1cccc(Cl)c1Cl [H1142, (S)-1-(4-(((1H-indol-5-yl)methyl)sulfonyl)phenyl)-3-(1-(2,3-dichlorophenyl)ethyl)urea]
EC50 [1, 11]: 440 nM | Metabolic Stability Study H = human [3]: 114.9 µL/min/mg | Metabolic Stability Study R = rat [5]: 209.6 µL/min/mg | Metabolic Stability Study M = mouse [6]: 151.4 µL/min/mg

C[C@@H](NC(=O)Nc1ccc(S(=O)(=O)Cc2ccc3c(c2)CNC3)cc1)c1ccccc1 [H1214, (R)-1-(4-((isoindolin-5-ylmethyl)sulfonyl)phenyl)-3-(1-phenylethyl)urea]
EC50 [1, 11]: 147 nM | IC50 [2, 12]: 278 nM | Metabolic Stability Study H = human [3]: 16.6 µL/min/mg | Metabolic Stability Study D = dog [4]: < 10 µL/min/mg | Metabolic Stability Study R = rat [5]: 18 µL/min/mg | Metabolic Stability Study M = mouse [6]: 21.4 µL/min/mg

CC(NC(=O)Nc1ccc(S(=O)(=O)Cc2ccc3c(c2)CNC3)cc1)c1ccccc1Cl.Cl (stereo not shown) [H1261, 1-(1-(2-chlorophenyl)ethyl)-3-(4-((isoindolin-5-ylmethyl)sulfonyl)phenyl)urea]
EC50 [1, 13]: 2.2 nM | EC50 [8]: > 30000 nM | IC50 [2, 14]: 1.57 nM | Metabolic Stability Study H = human [3]: 48.8 µL/min/mg | Metabolic Stability Study M = mouse [6]: 23 µL/min/mg | fraction unbound [9]: 0.045 | fraction unbound [10]: 0.019

CC(NC(=O)Nc1ccc(S(=O)(=O)Cc2cc(F)c3c(c2)CCN(C)C3)cc1)c1cccc(Cl)c1Cl (stereo not shown) [H1378, 1-(1-(2,3-dichlorophenyl)ethyl)-3-(4-(((8-fluoro-2-methyl-1,2,3,4-tetrahydroisoquinolin-6-yl)methyl)sulfonyl)phenyl)urea]
EC50 [1, 13]: 1.3 nM | EC50 [8]: > 30000 nM | IC50 [2, 14]: 19 nM | Metabolic Stability Study H = human [3]: 151.7 µL/min/mg | Metabolic Stability Study D = dog [4]: 227.9 µL/min/mg | Metabolic Stability Study M = mouse [6]: 245.9 µL/min/mg

CC(NC(=O)Nc1ccc(S(=O)(=O)Cc2nc3c(s2)CN(C)CC3)cc1)c1cccc(Cl)c1Cl (stereo not shown) [H1379, 1-(1-(2,3-dichlorophenyl)ethyl)-3-(4-(((5-methyl-4,5,6,7-tetrahydrothiazolo[5,4-c]pyridin-2-yl)methyl)sulfonyl)phenyl)urea]
EC50 [1, 13]: 1.43 nM | EC50 [8]: > 30000 nM | IC50 [2, 14]: 44.3 nM | Metabolic Stability Study H = human [3]: 261.6 µL/min/mg | Metabolic Stability Study D = dog [4]: > 500 µL/min/mg | Metabolic Stability Study M = mouse [6]: > 500 µL/min/mg

CC(NC(=O)Nc1ccc(S(=O)(=O)Cc2ccc3c(c2)CC(C)N(C)C3)cc1)c1cccc(Cl)c1Cl (stereo not shown) [H1380, 1-(1-(2,3-dichlorophenyl)ethyl)-3-(4-(((2,3-dimethyl-1,2,3,4-tetrahydroisoquinolin-6-yl)methyl)sulfonyl)phenyl)urea]
EC50 [1, 13]: 0.367 nM | IC50 [2, 14]: 2.3 nM | Metabolic Stability Study H = human [3]: 137 µL/min/mg | Metabolic Stability Study D = dog [4]: 169.9 µL/min/mg | Metabolic Stability Study M = mouse [6]: 66.5 µL/min/mg

COc1ccccc1C(C)NC(=O)Nc1ccc(S(=O)(=O)Cc2ccc3c(c2)CNC3)cc1 (stereo not shown) [H1382, 1-(4-((isoindolin-5-ylmethyl)sulfonyl)phenyl)-3-(1-(2-methoxyphenyl)ethyl)urea]
EC50 [1, 13]: 2.68 nM | EC50 [8]: > 30000 nM | IC50 [2, 14]: 34.3 nM | Metabolic Stability Study H = human [3]: 42.4 µL/min/mg | Metabolic Stability Study D = dog [4]: 41.9 µL/min/mg | Metabolic Stability Study M = mouse [6]: 43.4 µL/min/mg

COc1cc(S(=O)(=O)Cc2ccc3c(c2)CNC3)ccc1NC(=O)NC(C)c1ccccc1.Cl (stereo not shown) [H1383, 1-(4-((isoindolin-5-ylmethyl)sulfonyl)-2-methoxyphenyl)-3-(1-phenylethyl)urea]
EC50 [1, 13]: 2.01 nM | EC50 [8]: > 30000 nM | IC50 [2, 14]: 11.9 nM | Metabolic Stability Study H = human [3]: 21 µL/min/mg | Metabolic Stability Study D = dog [4]: 27.8 µL/min/mg | Metabolic Stability Study R = rat [5]: 48.2 µL/min/mg | Metabolic Stability Study M = mouse [6]: 91.9 µL/min/mg

COc1cc(S(=O)(=O)Cc2ccc3c(c2)CNC3)ccc1NC(=O)NC(C)c1cccc2ccccc12.O=C(O)C(F)(F)F (stereo not shown) [H1419, 1-(4-((isoindolin-5-ylmethyl)sulfonyl)-2-methoxyphenyl)-3-(1-(naphthalen-1-yl)ethyl)urea]
EC50 [1, 13]: 0.5 nM | EC50 [8]: > 30000 nM | IC50 [2, 14]: 4.4 nM | Metabolic Stability Study H = human [3]: 33.1 µL/min/mg | Metabolic Stability Study M = mouse [6]: 45.1 µL/min/mg | fraction unbound [9]: 0.0041 | fraction unbound [10]: 0.0031
